{"source": "ChEMBL document CHEMBL3046801", "about": "“Synthesis of 2-R1-2-(4-(2-fluoroethoxy)benzamido)acetate as potential PET imaging agents” (Med Chem Res, 2012)", "key": {"Lung [1]": {"test_system": "Lung", "experiment": "Biodistribution in tumor bearing Mus musculus KM (mouse) lung at 3.7 MBq, iv by microPET imaging analysis", "type": "ADME, organism-based", "conditions": "in vivo, TDE = time-dependent effect"}, "Kidney [2]": {"test_system": "Kidney", "experiment": "Biodistribution in tumor bearing Mus musculus KM (mouse) kidney at 3.7 MBq, iv measured at 15 min by microPET imaging analysis", "type": "ADME, organism-based", "conditions": "in vivo, 0.25 h"}, "Blood [3]": {"test_system": "Blood", "experiment": "Biodistribution in tumor bearing Mus musculus KM (mouse) blood at 3.7 MBq, iv by microPET imaging analysis", "type": "ADME, organism-based", "conditions": "in vivo, TDE = time-dependent effect"}, "Tumour": {"test_system": "Tumour", "experiment": "Biodistribution in tumor of Mus musculus KM (mouse) at 3.7 MBq, iv by microPET imaging analysis", "type": "ADME, organism-based, Neoplasm", "conditions": "in vivo, TDE = time-dependent effect"}, "Lung [4]": {"test_system": "Lung", "experiment": "Biodistribution in tumor bearing Mus musculus KM (mouse) lung at 3.7 MBq, iv measured at 15 min by microPET imaging analysis", "type": "ADME, organism-based", "conditions": "in vivo, 0.25 h"}, "Lung [5]": {"test_system": "Lung", "experiment": "Biodistribution in tumor bearing Mus musculus KM (mouse) lung at 3.7 MBq, iv measured at 30 min by microPET imaging analysis", "type": "ADME, organism-based", "conditions": "in vivo, 0.5 h"}, "Blood [6]": {"test_system": "Blood", "experiment": "Biodistribution in tumor bearing Mus musculus KM (mouse) blood at 3.7 MBq, iv measured at 5 min by microPET imaging analysis", "type": "ADME, organism-based", "conditions": "in vivo"}, "Brain [7]": {"test_system": "Brain", "experiment": "Biodistribution in tumor bearing Mus musculus KM (mouse) brain at 3.7 MBq, iv by microPET imaging analysis", "type": "ADME, organism-based", "conditions": "in vivo, TDE = time-dependent effect"}, "Brain [8]": {"test_system": "Brain", "experiment": "Biodistribution in tumor bearing Mus musculus KM (mouse) brain at 3.7 MBq, iv measured at 120 min by microPET imaging analysis", "type": "ADME, organism-based", "conditions": "in vivo, 2 h"}, "Brain [9]": {"test_system": "Brain", "experiment": "Biodistribution in tumor bearing Mus musculus KM (mouse) brain at 3.7 MBq, iv measured at 60 min by microPET imaging analysis", "type": "ADME, organism-based", "conditions": "in vivo, 1 h"}, "Heart [10]": {"test_system": "Heart", "experiment": "Biodistribution in tumor bearing Mus musculus KM (mouse) heart at 3.7 MBq, iv measured at 120 min by microPET imaging analysis", "type": "ADME, organism-based", "conditions": "in vivo, 2 h"}, "Lung [11]": {"test_system": "Lung", "experiment": "Biodistribution in tumor bearing Mus musculus KM (mouse) lung at 3.7 MBq, iv measured at 120 min by microPET imaging analysis", "type": "ADME, organism-based", "conditions": "in vivo, 2 h"}, "Kidney [12]": {"test_system": "Kidney", "experiment": "Clearance in tumor-bearing Mus musculus KM (mouse) kidney at 3.7 MBq, iv measured at 60 min", "type": "ADME, organism-based", "conditions": "in vivo, 1 h"}, "Blood [13]": {"test_system": "Blood", "experiment": "Biodistribution in tumor bearing Mus musculus KM (mouse) blood at 3.7 MBq, iv measured at 60 min by microPET imaging analysis", "type": "ADME, organism-based", "conditions": "in vivo, 1 h"}, "Heart [14]": {"test_system": "Heart", "experiment": "Biodistribution in tumor bearing Mus musculus KM (mouse) heart at 3.7 MBq, iv measured at 15 min by microPET imaging analysis", "type": "ADME, organism-based", "conditions": "in vivo, 0.25 h"}, "[15]": {"experiment": "Octanol-PBS partition coefficient of the compound at pH 7.4 by gamma counter", "type": "physicochemical", "conditions": "read-out: log KOW"}, "Nucleic Acid": {"test_system": "Nucleic Acid", "experiment": "Ratio of drug uptake in tumor to muscle in Mus musculus KM (mouse) at 3.7 MBq, iv at 5 min", "type": "ADME, organism-based", "conditions": "in vivo"}, "Kidney [16]": {"test_system": "Kidney", "experiment": "Biodistribution in tumor bearing Mus musculus KM (mouse) kidney at 3.7 MBq, iv measured at 120 min by microPET imaging analysis", "type": "ADME, organism-based", "conditions": "in vivo, 2 h"}, "Liver": {"test_system": "Liver", "experiment": "Biodistribution in tumor bearing Mus musculus KM (mouse) liver at 3.7 MBq, iv measured at 120 min by microPET imaging analysis", "type": "ADME, organism-based", "conditions": "in vivo, 2 h"}, "Kidney [17]": {"test_system": "Kidney", "experiment": "Biodistribution in tumor bearing Mus musculus KM (mouse) kidney at 3.7 MBq, iv measured at 60 min by microPET imaging analysis", "type": "ADME, organism-based", "conditions": "in vivo, 1 h"}, "Spleen [18]": {"test_system": "Spleen", "experiment": "Biodistribution in tumor bearing Mus musculus KM (mouse) spleen at 3.7 MBq, iv measured at 5 min by microPET imaging analysis", "type": "ADME, organism-based", "conditions": "in vivo"}, "Spleen [19]": {"test_system": "Spleen", "experiment": "Biodistribution in tumor bearing Mus musculus KM (mouse) spleen at 3.7 MBq, iv by microPET imaging analysis", "type": "ADME, organism-based", "conditions": "in vivo, TDE = time-dependent effect"}}, "data": [{"smiles": "COC(=O)CNC(=O)c1ccc(OCC[18F])cc1", "note": "[[18F]FEBA]", "values": [{"measurement": "Drug uptake", "setting": "Lung [1]", "value": "tde"}, {"measurement": "Drug uptake", "setting": "Kidney [2]", "value": 4.07, "unit": "% ID/g"}, {"measurement": "Drug uptake", "setting": "Blood [3]", "value": "tde"}, {"measurement": "Drug uptake", "setting": "Tumour", "value": "tde"}, {"measurement": "Drug uptake", "setting": "Lung [4]", "value": 1.69, "unit": "% ID/g"}, {"measurement": "Drug uptake", "setting": "Lung [5]", "value": 1.32, "unit": "% ID/g"}, {"measurement": "Drug uptake", "setting": "Blood [6]", "value": 4.68, "unit": "% ID/g"}, {"measurement": "Drug uptake", "setting": "Brain [7]", "value": "tde"}, {"measurement": "Drug uptake", "setting": "Brain [8]", "value": 0.6, "unit": "% ID/g"}, {"measurement": "Drug uptake", "setting": "Brain [9]", "value": 0.55, "unit": "% ID/g"}, {"measurement": "Drug uptake", "setting": "Heart [10]", "value": 0.77, "unit": "% ID/g"}, {"measurement": "Drug uptake", "setting": "Lung [11]", "value": 0.76, "unit": "% ID/g"}, {"measurement": "CL", "setting": "Kidney [12]", "value": 97, "unit": "%"}, {"measurement": "Drug uptake", "setting": "Blood [13]", "value": 0.98, "unit": "% ID/g"}, {"measurement": "Drug uptake", "setting": "Heart [14]", "value": 1.93, "unit": "% ID/g"}, {"measurement": "logD", "setting": "[15]", "value": 0.57}, {"measurement": "Ratio", "setting": "Nucleic Acid", "value": 1.05}, {"measurement": "Drug uptake", "setting": "Kidney [16]", "value": 0.65, "unit": "% ID/g"}, {"measurement": "Drug uptake", "setting": "Liver", "value": 0.68, "unit": "% ID/g"}, {"measurement": "Drug uptake", "setting": "Kidney [17]", "value": 0.97, "unit": "% ID/g"}, {"measurement": "Drug uptake", "setting": "Spleen [18]", "value": 2.04, "unit": "% ID/g"}, {"measurement": "Drug uptake", "setting": "Spleen [19]", "value": "tde"}]}]}
